Like-named read-outs stand apart in the source and are kept apart here.

What all share (format): in vivo
The test system of assay [1] is Green Soldier Stink Bug (Nezara viridula). As to the kind of experiment: B.11 Green soldier stink bug, sprayed soybean pods. The conditions noted are these: 120 h, read-out: mortality in comparison with untreated controls. As for the experimental part: B.11 Green Soldier Stink Bug (Nezara viridula)
The active compound was dissolved at the desired concentration in a mixture of 1:1 (vol:vol) distilled water:acetone. Surfactant (Kinetic HV) was added at a rate of 0.01% (vol/vol). The test solution was prepared at the day of use. Soybean pods were placed in glass Petri dishes lined with moist filter paper and inoculated with ten late 3rd instar N. viridula. Using a hand atomizer, approximately 2 ml solution is sprayed into each Petri dish. Assay arenas were kept at about 25° C. Percent mortality was recorded after 5 days.

Assay [2] has as its system Rice Green Leafhopper (Nephotettix virescens). Briefly: B.8 Rice green leafhopper, sprayed rice seedlings. To be noted: 72 h, read-out: mortality in comparison with untreated controls. As for the experimental part: B.8 Rice Green Leafhopper (Nephotettix virescens)
Rice seedlings were cleaned and washed 24 hours before spraying. The active compounds were formulated in 1:1 acetone:water (vol:vol), and 0.01% vol/vol surfactant (Kinetic HV) was added. Potted rice seedlings were sprayed with 5-6 ml test solution, air dried, covered with Mylar cages and inoculated with 10 adults. Treated rice plants were kept at about 28-29° C. and relative humidity of about 50-60%. Percent mortality was recorded after 72 hours.

Assay [3] deals with Diamond back moth (Plutella xylostella). Briefly: B.1 Diamond back moth, cabbage leaf dip. The conditions noted are these: foliar, 72 h, read-out: mortality in comparison with untreated controls. As for the experimental part:
B.1 Diamond back moth (Plutella xylostella)
The active compound was dissolved at the desired concentration in a mixture of 1:1 (vol:vol) distilled water:acetone. Surfactant (Kinetic HV) was added at a rate of 0.01% (vol/vol). The test solution was prepared at the day of use.
Leaves of cabbage were dipped in test solution and air-dried. Treated leaves were placed in petri dishes lined with moist filter paper and inoculated with ten 3rd instar larvae. Mortality was recorded 72 hours after treatment. Feeding damages were also recorded using a scale of 0-100%.

Assay [4] has the same test system. Briefly: CE.6 Diamond back moth, contact activity, comparative test. To be noted: read-out: % mortality in comparison to untreated controls. As for the experimental part:
(§1) The tables show % mortality in comparison to untreated controls.
CE.6 Diamond Back Moth (Plutella xylostella)
Ten third-instar larvae are sprayed with 1 ml test solution and introduce to untreated leaves held petri dished lined with moist filter paper. Mortality is recorded 24, 72, and 120 hours after treatment.

Assay [5] concerns Tobacco Budworm (Heliothis virescens). Briefly: B.4 Tobacco budworm, insect diet with eggs. The conditions noted are these: 120 h, read-out: mortality in comparison with untreated controls. As for the experimental part:
B.4 Tobacco Budworm (Heliothis virescens)
For evaluating control of tobacco budworm (Heliothis virescens) the test unit consisted of 96-well-microtiter plates containing an insect diet and 15-25 H. virescens eggs.
The compounds were formulated using a solution containing 75% v/v water and 25% v/v DMSO. Different concentrations of formulated compounds were sprayed onto the insect diet at 10 μl, using a custom built micro atomizer, at two replications.
After application, microtiter plates were incubated at about 28±1° C. and about 80±5% relative humidity for 5 days. Egg and larval mortality was then visually assessed.

The test system of assay [6] is Vetch Aphid (Megoura viciae). As to the kind of experiment: B.3 Vetch aphid, broad bean leaf disks. The conditions noted are these: foliar, 120 h, read-out: mortality in comparison with untreated controls. As for the experimental part:
B.3 Vetch Aphid (Megoura viciae)
For evaluating control of vetch aphid (Megoura viciae) through contact or systemic means the test unit consisted of 24-well-microtiter plates containing broad bean leaf disks.
The compounds were formulated using a solution containing 75% v/v water and 25% v/v DMSO. Different concentrations of formulated compounds were sprayed onto the leaf disks at 2.5 μl, using a custom built micro atomizer, at two replications.
After application, the leaf disks were air-dried and 5-8 adult aphids placed on the leaf disks inside the microtiter plate wells. The aphids were then allowed to suck on the treated leaf disks and incubated at about 23±1° C. and about 50±5% relative humidity for 5 days. Aphid mortality and fecundity was then visually assessed.

The test system of assay [7] is Orchid Thrips (Dichromothrips Corbetti). Briefly: B.7 Orchid thrips, floral immersion. To be noted: Thrips, 72 h, read-out: mortality in comparison with untreated controls. How it is done: B.7 Orchid Thrips (Dichromothrips Corbetti)
Dichromothrips corbetti adults used for bioassay were obtained from a colony maintained continuously under laboratory conditions. For testing purposes, the test compound is diluted in a 1:1 mixture of acetone:water (vol:vol), plus Kinetic HV at a rate of 0.01% v/v.
Thrips potency of each compound was evaluated by using a floral-immersion technique. All petals of individual, intact orchid flowers were dipped into treatment solution and allowed to dry in Petri dishes. Treated petals were placed into individual re-sealable plastic along with about 20 adult thrips. All test arenas were held under continuous light and a temperature of about 28° C. for duration of the assay. After 3 days, the numbers of live thrips were counted on each petal. The percent mortality was recorded 72 hours after treatment.

The test system of assay [8] is Red Spider Mite (Tetranychus kanzawai). As to the kind of experiment: B.9 Red spider mite, sprayed cowpea beans. To be noted: 72 h, read-out: mortality in comparison with untreated controls. How it is done: B.9 Red Spider Mite (Tetranychus kanzawai)
The active compound was dissolved at the desired concentration in a mixture of 1:1 (vol:vol) distilled water:acetone. Add surfactant (Kinetic HV) was added at a rate of 0.01% (vol/vol).The test solution was prepared at the day of use.
Potted cowpea beans of 4-5 days of age were cleaned with tap water and sprayed with 1-2 ml of the test solution using air driven hand atomizer. The treated plants were allowed to air dry and afterwards inoculated with 30 or more mites by clipping a cassava leaf section from rearing population. Treated plants were placed inside a holding room at about 25-27° C. and about 50-60% relative humidity. Percent mortality was assessed 72 hours after treatment.

Assay [9] concerns Boll Weevil (Anthonomus grandis). As to the kind of experiment: B.5 Boll weevil, insect diet with eggs. To be noted: 120 h, read-out: mortality in comparison with untreated controls. As for the experimental part:
B.5 Boll Weevil (Anthonomus grandis)
For evaluating control of boll weevil (Anthonomus grandis) the test unit consisted of 96-well-microtiter plates containing an insect diet and 5-10 A. grandis eggs.
The compounds were formulated using a solution containing 75% v/v water and 25% v/v DMSO. Different concentrations of formulated compounds were sprayed onto the insect diet at 5 μl, using a custom built micro atomizer, at two replications.
After application, microtiter plates were incubated at about 25±1° C. and about 75±5% relative humidity for 5 days. Egg and larval mortality was then visually assessed.

Assay [10] has as its system Green Peach Aphid (Myzus persicae). Briefly: B.2 Green peach aphid, artificial diet, systemic. To be noted: 72 h, read-out: mortality in comparison with untreated controls. An excerpt:
B.2 Green Peach Aphid (Myzus persicae)
For evaluating control of green peach aphid (Myzus persicae) through systemic means the test unit consisted of 96-well-microtiter plates containing liquid artificial diet under an artificial mem brane.
The compounds were formulated using a solution containing 75% v/v water and 25% v/v DMSO. Different concentrations of formulated compounds were pipetted into the aphid diet, using a custom built pipetter, at two replications.
After application, 5-8 adult aphids were placed on the artificial membrane inside the microtiter plate wells. The aphids were then allowed to suck on the treated aphid diet and incubated at about 23±1° C. and about 50±5% relative humidity for 3 days. Aphid mortality and fecundity was then visually assessed.

The test system of assay [11] is Neotropical Brown Stink Bug (Euschistus heros). Briefly: B.12 Neotropical brown stink bug, dipped pole bean. The conditions noted are these: 120 h, read-out: mortality in comparison with untreated controls. As for the experimental part: B.12 Neotropical Brown Stink Bug (Euschistus heros)
For evaluating control of Euschistus heros through contact the test unit consisted of 100 ml disposable plastic beakers with transparent lids.
The compounds were formulated using a solution containing 50% water and 50% acetone. 50 ml of different concentrations of formulated compounds or mixtures were prepared in a glass petri dish and used for dipping three 6 cm sections of fresh pole bean. Each treatment was replicated eight times.
After application, the pole bean sections were air-dried and 5 adult E. heros placed in each beaker. The E. heros were then allowed to suck on the treated pole bean sections and incubated at 23±1° C., 50±5% RH for 5 days. E. heros mortality was then visually assessed.

Assay [12] has as its system Cowpea Aphid (Aphis Craccivora). Briefly: CE.1 Cowpea aphid, comparative test. To be noted: read-out: % mortality in comparison to untreated controls. How it is done:
as §1
CE.1 Cowpea Aphid (Aphis Craccivora)
Potted cowpea plants colonized with approximately 100-150 aphids of various stages were sprayed after the pest population has been recorded. Population reduction was assessed after 24, 72, and 120 hours.

For assay [13], the system named is Rice Green Leafhopper (Nephotettix virescens). Briefly: CE.5 Rice green leafhopper, comparative test. The conditions noted are these: read-out: % mortality in comparison to untreated controls. How it is done: as §1
CE.5 Rice Green Leafhopper (Nephotettix virescens)
Rice seedlings were cleaned and washed 24 hours before spraying. The active compounds were formulated in 50:50 acetone:water (vol:vol), and 0.1% vol/vol surfactant (EL 620) was added. Potted rice seedlings were sprayed with 5 ml test solution, air dried, placed in cages and inoculated with 10 adults. Treated rice plants were kept at about 28-29° C. and relative humidity of about 50-60%. Percent mortality was recorded after 72 hours.

Assay [14] concerns Rice Brown Plant Hopper (Nilaparvata lugens). Briefly: CE.2 Rice brown plant hopper, comparative test. The conditions noted are these: 10 ppm, after 72 hours, read-out: % mortality in comparison to untreated controls. How it is done:
as §1
CE.2 Rice Brown Plant Hopper (Nilaparvata lugens)
Rice seedlings were cleaned and washed 24 hours before spraying. The active compounds were formulated in 50:50 acetone:water (vol:vol) and 0.1% vol/vol surfactant (EL 620) was added. Potted rice seedlings were sprayed with 5 ml test solution, air dried, placed in cages and inoculated with 10 adults. Treated rice plants were kept at about 28-29° C. and relative humidity of about 50-60%. Percent mortality was recorded after 72 hours.

The mortality is the percentage killed. As to `CCN1C(=O)C[C@@H](NC(=O)c2ccc(C3=NO[C@@](c4cc(Cl)c(F)c(Cl)c4)(C(F)(F)F)C3)cc2Cl)C1=O` [Compound I-1-21], the mortality at 300 ppm in assay [1], in [2], in assay [3], in [7] and in [8] was greater than 75% in each case. Besides, the mortality at 0.1 ppm in assay [4] worked out at 97%. Moreover, the mortality at 2500 ppm in [5], in assay [6], in assay [9] and in [10] was greater than 75% each time.
For `O=C(N[C@@H]1CC(=O)N(C2CC2)C1=O)c1ccc(C2=NO[C@@](c3cc(Cl)c(F)c(Cl)c3)(C(F)(F)F)C2)cc1Cl` [Compound I-1-25, 2-Chloro-N-[(3R)-1-cyclopropyl-2,5-dioxo-pyrrolidin-3-yl]-4-[(5S)-5-(3,5-dichloro-4-fluoro-phenyl)-5-(trifluoromethyl)-4H-isoxazol-3-yl]benzamide], the mortality at 500 ppm in assay [11] is greater than 75%. Besides, the mortality at 300 ppm in [1], in assay [2], in assay [3], in assay [7] and in assay [8] was greater than 75% throughout. The mortality at 2500 ppm in assay [5], in assay [6], in assay [9] and in [10] was greater than 75% in each case.
On to `Cc1cc(C2=NOC(c3cc(Cl)c(F)c(Cl)c3)(C(F)(F)F)C2)ccc1C(=O)N[C@@H]1CC(=O)N(C)C1=O` (stereo partly shown) [Compound I-1-27], for which the mortality at 300 ppm in assay [1], in assay [2], in assay [3], in assay [7] and in assay [8] was greater than 75% throughout. Besides, the mortality at 0.1 ppm in [4] came to 100%. The mortality at 2500 ppm in [5], in assay [6], in assay [9] and in assay [10] was greater than 75% each time. Moreover, the mortality at 10 ppm in assay [12] came to 93%. Further, the mortality at 3 ppm in assay [13] (72 h) is 83%.
As for `Cc1cc(C2=NOC(c3cc(Cl)cc(Cl)c3)(C(F)(F)F)C2)ccc1C(=O)N[C@@H]1CC(=O)N(C)C1=O` (stereo partly shown) [Compound I-1-28], in [11], the mortality at 500 ppm is greater than 75%. Also, the mortality at 300 ppm in [1], in [2], in assay [3], in assay [7] and in assay [8] was greater than 75% in each case. In addition, the mortality at 2500 ppm in assay [5], in assay [6], in [9] and in [10] was greater than 75% each time. The mortality at 10 ppm in assay [12] is 50%. In [13] (72 h), the mortality at 3 ppm is 79%.
Turning to `Cc1cc(C2=NSC(c3cc(Cl)cc(Cl)c3)(C(F)(F)F)C2)ccc1C(=O)NC1CCN(C)C1=O` (stereo not shown) [No. 2-201 of WO 2013/092943], the mortality at 300 ppm in assay [12] (at 300 ppm, sprayed cowpea plants) stood at 0%. Moreover, in assay [13] (3 ppm, after 72 hours), the mortality at 3 ppm came out at 0%. Moreover, in assay [14], the mortality at 10 ppm worked out at 0%.
With `CN1CCC(NC(=O)c2ccc(C3=NOC(c4cc(Cl)c(F)c(Cl)c4)(C(F)(F)F)C3)c3c2CCC3)C1=O` (stereo not shown) [Tab. 126, A-9 of WO 2015128358, reference compound], in assay [4], the mortality at 0.1 ppm was 0%.
Consider `CCN1CCC(NC(=O)c2ccc(C3=NOC(c4cc(Cl)c(F)c(Cl)c4)(C(F)(F)F)C3)c3c2CCC3)C1=O` (stereo not shown) [Tab. 127, A-9 of WO 2015128358, reference compound], for which, in [4], the mortality at 0.1 ppm was 0%.
